The source of these data is patent US20250213598A1, “COMPOUNDS AS ELASTASE INHIBITOR AND SOLID FORM THEREOF” (priority 2023, published 2025).

In data set [1] the target is T1, Recombinant Human Elastase (rhElastase) (Homo sapiens, UniProt P08246).
T1 sequence (P08246 30-267): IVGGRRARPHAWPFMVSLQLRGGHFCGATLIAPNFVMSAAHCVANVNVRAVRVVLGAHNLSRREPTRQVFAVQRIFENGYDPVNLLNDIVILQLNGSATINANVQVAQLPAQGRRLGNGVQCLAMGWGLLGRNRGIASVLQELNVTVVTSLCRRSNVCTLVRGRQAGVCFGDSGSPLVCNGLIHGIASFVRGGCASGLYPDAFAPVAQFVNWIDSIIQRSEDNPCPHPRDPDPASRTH
The data set can be described thus: Activity test against recombinant human elastase (rhElastase). The data set is classed as biochemical. On the procedure:
Activation of protease: rhElastase was diluted to 2 μM with an activation buffer containing 1.25 μM Recombinant Mouse Active Cathepsin C Protein (mCathepsin C), and incubated at 37° C. for 2 h. After activation, the mature rhElastase was diluted to form a 3.33 nM rhElastase reaction solution. The compound was diluted in serial with DMSO and added to a 384-well plate (3-fold serial dilution, 10 concentration points, duplicate wells). For the 384-well plate containing the compound, columns 1-12 each was added with 15 μL of the reaction buffer and columns 13-24 each was added with 15 μL of the rhElastase reaction solution. The plate was pre-incubated at 25° C. for 30 min and added with 5 μL of the substrate to start the reaction. The final concentration of rhElastase is 2.5 nM, and the final concentration of the substrate is 3.125 μM. The final concentration of DMSO in the reaction system is 1%. After incubating at 37° C. for 60 min, the fluorescence value was read with an M4 microplate reader. The detection conditions are Ex/Em=380 nm/460 nm.

Data set [2] in a line: Pharmacokinetic experiment in Sprague-Dawley rats (intravenous / inhalation; plasma and lung). The data set is classed as in vivo. Here is the method:
The appropriate amount of sodium citrate was weighed and dissolved in water to prepare a sodium citrate solution with a concentration of 1 mg/ml. After the addition of compound (I) (appropriate amount) under stirring, the sodium citrate solution was slowly added with 1 M sodium hydroxide solution to adjust the pH to 5.0±0.2. After stirring, dissolving and filtering, a stock solution of compound (I) with a concentration of 80 mg/ml was obtained, which is administrated by inhalation. The stock solution was diluted in a continuous gradient method to give a solution of compound (I) with a concentration of 0.4 mg/ml for intravenous administration.
21 male Sprague-Dawley rats was selected and divided into 7 groups (3 animals/group). Group 1 was administered intravenously at a dose of 2 mg/kg, and groups 2-7 are administered by inhalation at a designed dose of 15 mg/kg (an actual delivered dose is 16.712 mg/kg). For animals in groups 1-2, blood samples were collected before administration and at 2 min, 5 min, 15 min, 30 min, 1 h, 2 h, 4 h, 6 h, 8 h, and 24 h after administration. For animals in groups 3-7, lung tissues and blood samples were collected at 0.25 h, 1 h, 2 h, 6 h, and 12 h after administration (i.e., 2.25 h, 3 h, 4 h, 8 h, and 14 h After the start of the drug administration). The LC-MS/MS was used to analyze the concentration of compound (I) in the plasma and lung tissues of rats, and the non-compartmental model (NCA) of the pharmacokinetic analysis software WinNonlin (8.0.0.3176) is used to analyze the drug concentrations in plasma and lung tissue and calculate the pharmacokinetic parameters.

Setting [3] is: Inhalation, 15 mg/kg, SD rats, matrix Lung.
[4] abbreviates: Inhalation, 15 mg/kg, male SD rats, plasma.
The mark [5] stands for this setting: Intravenous, 2 mg/kg, male SD rats, plasma.

SMILES strings stand for the structures.

As for `CC(C)C(NC(=O)C1CCCN1C(=O)C(NC(=O)c1ccc(C(=O)NCC(=O)O)cc1)C(C)C)B1OB(C(NC(=O)C2CCCN2C(=O)C(NC(=O)c2ccc(C(=O)NCC(=O)O)cc2)C(C)C)C(C)C)OB(C(NC(=O)C2CCCN2C(=O)C(NC(=O)c2ccc(C(=O)NCC(=O)O)cc2)C(C)C)C(C)C)O1` (stereo not shown) [compound (I)], the concentration for half-maximal inhibition (IC50) in data set [1] amounted to 1.32 nM. The Cmax is reported as 67568.60 in data set [2] (setting [3]); 320.58 in data set [2] (Inhalation, 15 mg/kg, SD rats, matrix Plasma, in ng/mL); 798.55 ± 333.20 ng/mL in data set [2] (setting [4]); 5331.49 ± 696.49 ng/mL in data set [2] (setting [5]). Moreover, the Tmax is recorded as 2.25 h in data set [2] (setting [3]); 2.25 h in data set [2] (Inhalation, 15 mg/kg, SD rats, matrix Plasma); 2.03 ± 0.0 h in data set [2] (setting [4]); 0.03 ± 0.0 h in data set [2] (setting [5]). Besides, the t1/2 was 2.69 h in data set [2] (setting [3]), 1.91 ± 1.05 h in data set [2] (setting [4]) and 0.33 ± 0.10 h in data set [2] (setting [5]). Besides, the AUClast in data set [2] (Inhalation, 15 mg/kg, SD rats, matrix Plasma, in ng·h/mL) turned out to be 622.35; in data set [2] (setting [4]), 1501.79 ± 486.138 ng·h/mL; in data set [2] (setting [5]) it was 1107.18 ± 144.07 ng·h/mL. The compound further yielded a F % in data set [2] (Inhalation, 15 mg/kg, male SD rats) of 18.09%.
